Laboratory results reported in patent US11426402B2, “IRE1 activating compounds for use in therapy” (The Scripps Research Institute, priority 2019, dated 2022).

How the values were obtained:
[1] = system: IRE1-specific target genes; experiment: RT-PCR of Xbp1s and Erdj4 in adipose tissue after single IP dose; type: in vivo
From the text: (§1) FIGS. 7A-7D. RT-PCR of Xbp1s and the IRE1/XBP1s target gene Erdj4 from adipose tissue post single IP dose of 474 (FIG. 7A). Liver RNAseq profiles of ATF6, IRE1 and PERK target genes expressed as log 2 fold change of chronic 474 treatment compared to vehicle (FIG. 7B). Body weight (FIG. 7C) and food intake (FIG. 70) over 6 weeks of dosing.
Obesity has grown into a major public health crisis over the past few decades, enhancing the risk of numerous complications such as type 2 diabetes (T2D). […] of Xbp1, the key transcription factor downstream of IRE1, causes insulin resistance through increased accumulation of ER stress^33. Conversely, overexpression of active Xbp1s in the livers of ob/ob mice restores insulin signaling and reduces gluconeogenesis through the targeted degradation of a key metabolic regulator, FoxO1^55. IRE1 function is also critical in the maintenance of pancreatic β-cell function and glucose stimulated-insulin secretion^56. Although these genetic studies highlight the therapeutic potential of targeting the IRE1-XBP1s signaling axis for T2D and related metabolic disorders, no highly-selective pharmacological IRE1 activators have been available until the present disclosure's provision for screening and optimization of a lead molecule, 474.

SHSY5Y cells = experiment: CellTiterGlo ATP levels in SHSY5Y cells overexpressing APP SW; type: cell-based; conditions: APP SW overexpressing cells cultured in galactose, 10 μM, 72 hours
Procedure: FIGS. 6A-6C. Histograms showing TMRE staining of SH-SY5Y cells transiently expressing empty vector (Mock) or Swedish mutant APP in the presence or absence of 474 (10 μM) for 72 hours (FIG. 6A). Quantification of TMRE staining in (A). Error bars represent SEM for n=3 replicates. Statistics calculated from one-tailed Student's t-test. *p<0.05, **p<0.01, ***p<0.001 (FIG. 613). Graph showing relative luminescence from CellTiterGlo assay of SH-SY5Y cells transiently expressing empty vector or Swedish mutant APP cultured in galactose media for 72 hours in the presence or absence of IRE1 activator 474 (10 μM). Error bars represent SEM for n=3 replicates. Statistics calculated from one-tailed Student's t-test. *p<0.05, **p<0.01, ***p<0.001 (FIG. 6C).
For determination of relative cellular ATP levels, SHSY5Y cells were seeded into flat black, poly-D-lysine coated 96-well plates (Corning). […] Luminescence was then measured in an Infinite F200 PRO plate reader (Tecan and corrected for background signal. All measurements were performed in biologic triplicate.
Mitochondrial depolarization decreases the capacity for cells to produce ATP through oxidative phosphorylation at the inner mitochondrial membrane. […] Accordingly, ATP levels were monitored in SHSY5Y cells overexpressing APP^SW and incubated in media that was supplemented with glucose or galactose. […]

IRE1 target genes = experiment: Liver RNA sequencing of DIO mice, IRE1 targets; type: in vivo, mouse; conditions: once-daily IP 50 mg/kg, 6 weeks
Procedure: as §1
(§2) To test the efficacy of pharmacologic IRE1 activation in mitigating T2D, we chronically administered 474 by once-daily IP injections at 50 mg/kg for a period of 6 weeks to Diet-Induced Obese (DIO) mice, a model of T2D.

DNAJB9 = DNAJB9 expression in SHSY5Y cells overexpressing APP SW; type: cell-based
[2] = system: Diet-Induced Obese (DIO) mice; experiment: Glucose tolerance, serum glucose and insulin in DIO mice; type: in vivo, mouse; conditions: 4 weeks of dosing
From the text: FIGS. 8A-8E. Oral glucose tolerance test in DIO mice treated with either Vehicle or 474 for 3 weeks (n=8) (FIG. 8A). Serum glucose and insulin levels post 4 weeks of dosing with 474 or vehicle (FIG. 8B). Glucose stimulated insulin secretion in islets isolated from 474 or vehicle treated mice. (FIG. 8C). Hepatic triglyceride content (FIG. 8D) and gene expression profiles of gluconeogenic genes (FIG. 8E) at 6 weeks post dosing.
as §2
This effect can be rationalized, at least in part, by enhanced pancreatic f-cell function in 474-treated […], as shown by our studies in isolated pancreatic islets from vehicle- and 474-treated mice. […] Given the well-documented link between IRE1 and hepatic metabolism in T2D^55, we also examined markers of liver function after 474 treatment. We found reduced liver triglyceride accumulation in 474-treated mice relative to controls (FIG. 80).

APP = APP immunoblots of lysates and conditioned media of CHO 7PA2 cells; type: cell-based; conditions: CHO 7PA2, 10 μM
Procedure: FIGS. 5A-5D. […] Cells were treated for 18 hours, media was then replaced and conditioned in the presence of treatments for 24 hours before harvesting for ELISA assay. Error bars represent SEM for n=3 replicates. Statistics calculated from one-tailed Student's t-test. *p<0.05, **p<0.01, ***p<0.001 (FIG. 5A). Quantification of media and lysate immunoblots from 474 treatment (10 μM) of APP. Error bars represent Standard Deviation for n=3 replicates. Statistics calculated from one-tailed Student's t-test. *p<0.05, **p<0.01 ***p<0.001 (FIG. 5B). Plot showing fraction of total remaining APP at each time point after S35 metabolic labeling of newly synthesized protein, accounting for the sum of APP in lysate and media. Error bars represent Standard Deviation for n=3 replicates. Statistics calculated from one-tailed Student's t-test. *p<0.05, **p<0.01, ***p<0.001 (FIG. 5C). Plot showing fraction of secreted APP collected at 2 hours after metabolic labeling. Error bars represent Standard Deviation for n=3 replicates. Statistics calculated from one-tailed Student's t-test. *p<0.05, **p<0.01, ***p<0.001 (FIG. 5D). […]

ATF6 target genes = experiment: Liver RNA sequencing of DIO mice, ATF6 targets; type: in vivo, mouse; conditions: once-daily IP 50 mg/kg, 6 weeks
Procedure: as §1, §2

Compound: Cc1ccc(OCCN(C)C(=O)Cn2cc(NC(=O)CCOc3ccccc3)cn2)cc1 [Compound 474]
- IRE1-specific target genes in adipose tissue [1]: induction
- bioavailability [1]: readily bioavailable
- ATP levels (SHSY5Y cells): increased
- Xbp1 splicing in liver (IRE1 target genes): robust Xbp1splicing
- downstream IRE1 targets in liver (IRE1 target genes): selective activation
- DNAJB9 expression (DNAJB9): further increased
- basal insulin levels [2]: more prominent decrease
- fasting glucose [2]: significant reduction
- APP levels in lysates and conditioned media (APP): reduced APP levels in both lysates and conditioned media
- ATF6 transcriptional response in liver (ATF6 target genes): modest induction
